Results from patent US11053253B2, “Macrocyclic compounds for treatment of medical disorders” (Achillion Pharmaceuticals, Inc., priority 2017, dated 2021).

biological target: Human Factor D (Homo sapiens (Human), UniProt P00746); experiment: Human Factor D Assay; type: biochemical; details: Human Factor D 80 nM, substrate Z-L-Lys-SBzl, DTNB, A405; read-out: IC50 (Stars)
Method: Example 2. Human Factor D Assay
Human Factor D (purified from human serum, Complement Technology, Inc.) at 80 nM final concentration is incubated with test compound at various concentrations for 5 min at room temperature in 50 mM Tris, 1M NaCl, pH 7.5. A synthetic substrate Z-L-Lys-SBzl and DTNB (Ellman's reagent) are added to final concentrations of 100 µM each. Absorbance at 405 nm (A405) is recorded at 30 second intervals for 30 minutes using a microplate spectrophotometer. IC50 values are calculated by nonlinear regression of Complement Factor D reaction rates as a function of test compound concentration.

Sequence of Human Factor D (P00746 26-253): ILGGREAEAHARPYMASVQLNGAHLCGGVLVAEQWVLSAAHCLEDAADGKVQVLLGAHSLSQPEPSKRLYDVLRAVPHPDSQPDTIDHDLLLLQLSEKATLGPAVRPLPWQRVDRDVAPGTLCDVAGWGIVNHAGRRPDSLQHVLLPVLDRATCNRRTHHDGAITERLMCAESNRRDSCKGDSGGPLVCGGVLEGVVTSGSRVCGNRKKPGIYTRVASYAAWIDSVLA

Compound | IC50 [nM]
CC(=O)c1nn(CC(=O)N2[C@H]3C[C@@]4(CNS(=O)(=O)CCC=Cc5ccc(Br)nc5NC3=O)C[C@@H]24)c2ccc(-c3cnc(C)nc3)cc12 [Compound T-9, (41R,43S,45R)-42-(2-(3-acetyl-5-(2-methylpyrimidin-5-yl)-1H-indazol-1-yl)acetyl)-16-bromo-7-thia-42,2,6-triaza-1(2,3)-pyridina-4(3,5)-bicyclo[3.1.0]nexanacycloundecaphan-10-en-3-one 7,7-dioxide] | < 1000
CC(=O)c1nn(CC(=O)N2[C@H]3C[C@@]4(COCC=CCOCc5ccc(Br)nc5NC3=O)C[C@@H]24)c2ccccc12 [Compound T-10, (41R,43S,45S)-42-(2-(3-acetyl-1H-indazol-1-yl)acetyl)-16-bromo-6,11-dioxa-42,2-diaza-1(2,3)-pyridina-4(3,5)-bicyclo[3.1.0]hexanacyclododecaphan-8-en-3-one] | < 1000
CC(=O)c1nn(CC(=O)N2[C@H]3C[C@@]4(COCC=CCOCc5ccc(Br)nc5NC3=O)C[C@@H]24)c2cnccc12 [Compound T-11, (41R,43S,45S)-42-(2-(3-acetyl-1H-pyrazolo[3,4-c]pyridin-1-yl)acetyl)-16-bromo-6,11-dioxa-42,2-diaza-1(2,3)-pyridina-4(3,5)-bicyclo[3.1.0]hexanacyclododecaphan-8-en-3-one] | < 1000
CC(=O)c1nn(CC(=O)N2[C@H]3C[C@@]4(COCC=CCOCc5ccc(Br)nc5NC3=O)C[C@@H]24)c2c(C)cccc12 [Compound T-12, (41R,43S,45S)-42-(2-(3-acetyl-7-methyl-1H-indazol-1-yl)acetyl)-16-bromo-6,11-dioxa-42,2-diaza-1(2,3)-pyridina-4(3,5)-bicyclo[3.1.0]hexanacyclododecaphan-8-en-3-one] | < 1000
CC(=O)c1nn(CC(=O)N2[C@H]3C[C@]4(C[C@@H]24)CN(C)CCCCC=Cc2ccc(Br)nc2NC3=O)c2cnccc12 [Compound T-13, (41R,43S,45R)-42-(2-(3-acetyl-1H-pyrazolo[3,4-c]pyridin-1-yl)acetyl)-16-bromo-6-methyl-42,2,6-triaza-1(2,3)-pyridina-4(3,5)-bicyclo[3.1.0]hexanacyclododecaphan-11-en-3-one] | < 1000
CC(=O)c1cc2n(n1)CC(=O)N1[C@@H](C[C@@]3(C)C[C@@H]13)C(=O)Nc1nc(Br)ccc1COC/C=C/CCNC2=O [Compound T-14, (18aS,19aR,20aR,E)-2-acetyl-15-bromo-19a-methyl-6,7,12,17,18a,19,19a,20,20a,23-decahydro-4H-cyclopropa[4,5]pyrrolo[2,1-g]pyrazolo[1,5-k]pyrido[3,2-c][1,5,8,11,14]oxatetraazacyclononadecine-4,18,22(5H,10H)-trione] | > 10000
CC(=O)c1cc2n(n1)CC(=O)N1[C@@H](C[C@@]3(C)C[C@@H]13)C(=O)Nc1nc(Br)ccc1COC/C=C\CCNC2=O [Compound T-15, (18aS,19aR,20aR,Z)-2-acetyl-15-bromo-19a-methyl-6,7,12,17,18a,19,19a,20,20a,23-decahydro-4H-cyclopropa[4,5]pyrrolo[2,1-g]pyrazolo[1,5-k]pyrido[3,2-c][1,5,8,11,14]oxatetraazacyclononadecine-4,18,22(5H,10H)-trione] | > 10000
CC(=O)c1nn(CC(=O)N2[C@H]3C[C@@]4(CNS(=O)(=O)CCC=Cc5ccc(Br)nc5NC3=O)C[C@@H]24)c2cnccc12 [Compound T-16, (41R,43S,45R)-42-(2-(3-acetyl-1H-pyrazolo[3,4-c]pyridin-1-yl)acetyl)-16-bromo-7-thia-42,2,6-triaza-1(2,3)-pyridina-4(3,5)-bicyclo[3.1.0]hexanacycloundecaphan-10-en-3-one 7,7-dioxide] | < 1000
CC(=O)c1nn(CC(=O)N2[C@H]3C[C@]4(C[C@@H]24)Cn2cc(nn2)COCc2ccc(Br)nc2NC3=O)c2ccc(-c3cnc(C)nc3)cc12 [Compound T-18, (31R,33S,35R,Z)-32-(2-(3-acetyl-5-(2-methylpyrimidin-5-yl)-1H-indazol-1-yl)acetyl)-66-bromo-11H-8-oxa-32,5-diaza-6(2,3)-pyridina-1(1,4)-triazola-3(5,3)-bicyclo[3.1.0]hexanacyclononaphan-4-one] | < 1000
CC(=O)c1nn(CC(=O)N2[C@H]3C[C@@]4(C=CCCCCN(C)C(=O)Cc5ccc(Br)nc5NC3=O)C[C@@H]24)c2ccc(-c3cnc(C)nc3)cc12 [Compound T-19, (41R,43S,45R)-42-(2-(3-acetyl-5-(2-methylpyrimidin-5-yl)-1H-indazol-1-yl)acetyl)-16-bromo-11-methyl-42,2,11-triaza-1(2,3)-pyridina-4(3,5)-bicyclo[3.1.0]hexanacyclotridecaphan-5-ene-3,12-dione] | < 1000
CC(=O)c1nn2c3c(cc(-c4cnc(C)nc4)cc13)CCC=CCCCC(=O)NC[C@@]13C[C@@H](C(=O)Nc4nc(Br)ccc4C)N(C(=O)C2)[C@@H]1C3 [Compound T-20, (41R,43S,45R)-13-acetyl-N-(6-bromo-3-methylpyridin-2-yl)-15-(2-methylpyrimidin-5-yl)-3,7-dioxo-11H-42,6-diaza-1(1,7)-indazola-4(2,5)-bicyclo[3.1.0]hexanacyclotetradecaphan-11-ene-43-carboxamide] | < 1000
CC(=O)c1nn2c3c(cc(-c4cnc(C)nc4)cc13)CC=CCCCC(=O)NC[C@@]13C[C@@H](C(=O)Nc4nc(Br)ccc4C)N(C(=O)C2)[C@@H]1C3 [Compound T-21, (41R,43S,45R)-13-acetyl-N-(6-bromo-3-methylpyridin-2-yl)-15-(2-methylpyrimidin-5-yl)-3,7-dioxo-11H-42,6-diaza-1(1,7)-indazoia-4(2,5)-bicyclo[3.1.0]hexanacyclotridecaphan-11-ene-43-carboxamide] | < 1000
CC(=O)N[C@H]1CC=CCOCc2ccc(Br)nc2NC(=O)[C@@H]2C[C@@]3(CNC1=O)C[C@H]3N2C(=O)Cn1nc(C(C)=O)c2cc(-c3cnc(C)nc3)ccc21 [Compound T-22, N-((41R,43S,45R,8S)-42-(2-(3-acetyl-5-(2-methylpyrimidin-5-yl)-1H-indazol-1-yl)acetyl)-16-bromo-3,7-dioxo-13-oxa-42,2,6-triaza-1(2,3)-pyridina-4(3,5)-bicyclo[3.1.0]hexanacyclotetradecaphan-10-en-8-yl)acetamide] | < 1000
CC(=O)c1nn2c3c(cc(-c4cnc(C)nc4)cc13)CCCCCCCCOC[C@@]13C[C@@H](C(=O)Nc4nc(Br)ccc4C)N(C(=O)C2)[C@@H]1C3 [Compound T-23, (41R,43S,45S)-13-acetyl-N-(6-bromo-3-methylpyridin-2-yl)-15-(2-methylpyrimidin-5-yl)-3-oxo-11H-6-oxa-42-aza-1(1,7)-indazola-4(2,5)-bicyclo[3.1.0]hexanacyclotetradecaphane-43-carboxamide] | < 1000
CC(=O)c1nn2c3c(cc(-c4cnc(C)nc4)cc13)CCCCCCCCCOC[C@@]13C[C@@H](C(=O)Nc4nc(Br)ccc4C)N(C(=O)C2)[C@@H]1C3 [Compound T-24, (41R,43S,45S)-13-acetyl-N-(6-bromo-3-methylpyridin-2-yl)-15-(2-methylpyrimidin-5-yl)-3-oxo-11H-6-oxa-42-aza-1(1,7)-indazola-4(2,5)-bicyclo[3.1.0]hexanacyclopentadecaphane-43-carboxamide] | < 1000
